From PMC7672424 (Nucleic Acids Research, 2020)

What was measured:
[1] = test system: 19AT (DNA, duplex) ACGTCGATTATAGACGAGC/GCTCGTCTATAATCGACGT; assay: CD melting; settings: 50 mM K+; 10 mM Tris-HCl pH 7.4; 5 µM DNA, 20 µM compound
[2] = test system: monomeric G-quadruplexes (TBA, c-KIT1, c-KIT2, c-MYC Pu22, VEGF, TTA), duplex (19AT), single strand (dT30); assay: Fluorescence response of BMPQ-1 to DNA; format: binding; settings: 3 μM BMPQ-1, 4 μM other DNAs, λex = 395 nm
Protocol: Figure 1. (A) Structure of BMPQ-1. (B) Fluorescence spectra of BMPQ-1 at λex = 395 nm in the absence or presence of dimeric G-quadruplexes (TTA45), monomeric G-quadruplexes (c-KIT1, c-KIT2, c-MYCPu22, TTA, VEGF, TBA), trinucleotide DNA (CGG12), duplex DNA (19AT) and single-stranded DNA (dT30). The concentration of BMPQ-1 was 3 μM. The concentration of TTA45 was 2 μM and DNAs with other structures were 4 μM. (C) Fluorescence spectra of 6 μM BMPQ-1 at λex = 395 nm in the absence or presence of 2 μM telomeric G-quadruplexes. Oligonucleotide samples were prepared in solution with 10 mM K2HPO4/KH2PO4, pH 7.0, 100 mM KCl. (D) Effect of BMPQ-1 on the CD spectra of 10 μM TTA45 in 10 mM Tris-HCl buffer (pH 7.4) containing 100 mM KCl.
G-quadruplex forming oligonucleotides were annealed in the buffer (10 mM K2HPO4/KH2PO4 pH 7.0, 100 mM KCl) by heating to 95°C for 5 min, followed by gradual cooling to room temperature. Fluorescence spectra were detected by RF-5301PC spectrofluorophotometer (Shimadzu, Japan) at room temperature. The spectra were recorded with 5 nm excitation and emission slit widths. […] For the fluorescence measurements between BMPQ-1 and different DNA sequences, the final concentrations of multimeric G-quadruplex forming oligonucleotides were 2 μM and other DNA oligonucleotides were 4 μM.

[3] = test system: BG4 foci (DNA G-quadruplexes) in A549 cells; assay: Immunofluorescence of BG4 and TRF2 foci; format: cell-based, human; settings: A549, 1.5 μM, 24 h
Protocol: The cells (5 × 10^4 cells) were seeded on 35-mm glass-bottomed dishes and grown for 24 h for attachment. Then old medium was replaced by fresh DMEM containing 1.5 μM BMPQ-1 and incubated for 24 h. After washed three times with PBS buffer, the cells were fixed in 4% paraformaldehyde/PBS for 15 min and then permeabilized with 0.3% Triton-X 100/PBS at 37°C for 20 min. Then the cells were blocked with 5% BSA/PBS at 37°C for 1 h. Finally, the cells were incubated with primary antibodies at 37°C for 3 h. After that, the cells were washed six times with blocking buffer, and were then incubated with secondary antibodies at 37°C for 3 h. Finally, the cells were washed six times with PBS buffer again. The digital images were recorded using a confocal laser scanning microscopy (Olympus FV1000) and analyzed with ImageJ software. One hundred nuclei were counted in each group. […]
Figure 2. […] (B) Quantification of the number of γH2AX foci per nucleus in A549 cells treated with or without BMPQ-1. (C) Quantification of the colocalization of γH2AX and TRF2 per nucleus in A549 cells treated with or without BMPQ-1. […] (E) Quantification of the number of BG4 foci per nucleus in A549 cells treated with or without BMPQ-1. (F) Quantification of the colocalized BG4 and TRF2 per nucleus in A549 cells treated with or without BMPQ-1.

A549 cells = assay: Cell cycle analysis by flow cytometry (PI); format: cell-based, human; settings: A549, 3 μM, 24 h; control 10.4%
Protocol: A549 cells treated with BMPQ-1 were harvested and washed in PBS and fixed with 70% ethanol at 4°C overnight. Then, the cells were centrifuged and re-suspended in a staining solution (50 μg/mL propidium iodide (PI), 75 KU/ml RNase A in PBS) for 30 min at room temperature in the dark. The cells were analyzed by flow cytometer (BD FacsAria, USA). For each analysis, 2.0 × 10^4 events were collected.
Figure S9. BMPQ-1 induced A549 cell cycle arrest. (A) The cell cycle analysis of A549 cells after 24 h treatment with BMPQ-1. The cells were collected and stained with propidium iodide (PI). (B) Percentage of A549 cells in different phases of the cell cycle. […]
different from the control. […]

[4] = test system: FAM-TTA45-TAMRA (DNA, G4) GGGTTAGGGTTAGGGTTAGGGTTAGGGTTAGGGTTAGGGTTAGGG; assay: FRET melting; settings: 100 mM K+ (KCl) plus potassium phosphate; 10 mM K2HPO4/KH2PO4 pH 7.0; 0.5 µM DNA, 20 µM compound

## Cc1ccc(Cn2cc3c(-c4ccc5c(c4)OCO5)nnc-3c3cc4c(cc32)OCO4)cc1 [BMPQ-1]
[1]
  ΔTm: 1.8 °C
[2]
  fluorescence enhancement: less than 3 fold
[3]
  amount of BG4 foci in the nucleus: significant increase
  amount of co-localized BG4 and TRF2 foci: significantly increased
A549 cells
  percentage of G2/M phase: 17.8%
[4]
  ΔTm: 16.09 ± 1.79 °C
